Our source for the AC50 values is ChEMBL document CHEMBL5291721, “A preclinical secondary pharmacology resource illuminates target-adverse drug reaction associations of marketed drugs” (Nat Commun, 2023).

The target in experiment [1] is T1, Progesterone receptor (Homo sapiens, UniProt P06401).
T1 sequence (P06401 whole entry): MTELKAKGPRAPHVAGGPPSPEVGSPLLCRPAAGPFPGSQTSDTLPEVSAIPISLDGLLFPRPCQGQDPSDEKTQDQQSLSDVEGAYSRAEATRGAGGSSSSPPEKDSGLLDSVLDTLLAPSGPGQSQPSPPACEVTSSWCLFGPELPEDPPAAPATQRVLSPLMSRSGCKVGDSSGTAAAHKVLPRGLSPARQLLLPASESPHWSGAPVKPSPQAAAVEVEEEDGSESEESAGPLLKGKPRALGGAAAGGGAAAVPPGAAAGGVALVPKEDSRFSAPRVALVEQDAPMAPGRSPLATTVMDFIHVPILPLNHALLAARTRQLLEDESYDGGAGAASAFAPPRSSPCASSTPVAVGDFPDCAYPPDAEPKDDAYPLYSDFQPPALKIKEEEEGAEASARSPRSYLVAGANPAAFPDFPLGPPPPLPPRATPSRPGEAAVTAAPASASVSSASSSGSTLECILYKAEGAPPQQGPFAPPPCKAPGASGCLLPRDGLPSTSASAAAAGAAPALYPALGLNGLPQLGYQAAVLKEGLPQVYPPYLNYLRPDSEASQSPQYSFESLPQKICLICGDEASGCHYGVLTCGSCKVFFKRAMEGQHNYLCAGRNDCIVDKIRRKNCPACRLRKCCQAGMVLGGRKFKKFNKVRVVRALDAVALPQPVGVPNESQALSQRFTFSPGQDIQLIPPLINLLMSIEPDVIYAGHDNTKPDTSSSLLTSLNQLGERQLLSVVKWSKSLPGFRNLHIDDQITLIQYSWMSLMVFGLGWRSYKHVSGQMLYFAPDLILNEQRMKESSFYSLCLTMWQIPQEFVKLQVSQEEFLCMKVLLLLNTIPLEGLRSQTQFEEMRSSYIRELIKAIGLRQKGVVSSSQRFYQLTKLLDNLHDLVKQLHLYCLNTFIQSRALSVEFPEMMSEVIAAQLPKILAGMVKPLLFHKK
The experiment is classed as functional.

Experiment [2] has as its target T2, 5-hydroxytryptamine receptor 1A (Homo sapiens, UniProt P08908).
T2 sequence (P08908 whole entry): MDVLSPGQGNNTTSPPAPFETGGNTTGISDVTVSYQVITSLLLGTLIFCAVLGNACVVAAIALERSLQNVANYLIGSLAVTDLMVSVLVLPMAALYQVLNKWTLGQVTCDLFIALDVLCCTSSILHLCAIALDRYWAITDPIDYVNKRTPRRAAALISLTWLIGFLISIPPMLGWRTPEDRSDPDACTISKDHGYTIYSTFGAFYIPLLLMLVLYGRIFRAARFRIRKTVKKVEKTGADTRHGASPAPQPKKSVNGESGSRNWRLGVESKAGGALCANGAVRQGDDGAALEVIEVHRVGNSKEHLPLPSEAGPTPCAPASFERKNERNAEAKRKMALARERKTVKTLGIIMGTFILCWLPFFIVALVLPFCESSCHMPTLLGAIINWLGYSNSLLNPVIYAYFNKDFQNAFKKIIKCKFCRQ
The experiment is classed as functional, cell-based.

In experiment [3] the target is Sodium-dependent serotonin transporter (Homo sapiens, UniProt P31645).
In experiment [4] the target is T3, Alpha-1A adrenergic receptor (Homo sapiens, UniProt P35348).
T3 sequence (P35348 whole entry): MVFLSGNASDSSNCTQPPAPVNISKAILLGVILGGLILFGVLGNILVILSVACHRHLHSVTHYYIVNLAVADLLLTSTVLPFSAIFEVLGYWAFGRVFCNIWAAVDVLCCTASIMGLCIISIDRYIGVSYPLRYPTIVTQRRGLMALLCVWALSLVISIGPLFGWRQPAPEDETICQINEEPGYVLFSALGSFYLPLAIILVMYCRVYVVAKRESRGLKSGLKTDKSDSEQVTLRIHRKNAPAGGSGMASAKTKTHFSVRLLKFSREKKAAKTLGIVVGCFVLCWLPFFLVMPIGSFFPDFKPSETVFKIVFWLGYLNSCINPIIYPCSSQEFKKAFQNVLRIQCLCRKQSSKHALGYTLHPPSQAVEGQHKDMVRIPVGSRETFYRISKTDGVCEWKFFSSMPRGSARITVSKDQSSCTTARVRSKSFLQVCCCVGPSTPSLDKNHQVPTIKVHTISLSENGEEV

Experiment [5] addresses T4, Corticotropin-releasing factor receptor 1 (Homo sapiens, UniProt P34998).
T4 sequence (P34998 whole entry): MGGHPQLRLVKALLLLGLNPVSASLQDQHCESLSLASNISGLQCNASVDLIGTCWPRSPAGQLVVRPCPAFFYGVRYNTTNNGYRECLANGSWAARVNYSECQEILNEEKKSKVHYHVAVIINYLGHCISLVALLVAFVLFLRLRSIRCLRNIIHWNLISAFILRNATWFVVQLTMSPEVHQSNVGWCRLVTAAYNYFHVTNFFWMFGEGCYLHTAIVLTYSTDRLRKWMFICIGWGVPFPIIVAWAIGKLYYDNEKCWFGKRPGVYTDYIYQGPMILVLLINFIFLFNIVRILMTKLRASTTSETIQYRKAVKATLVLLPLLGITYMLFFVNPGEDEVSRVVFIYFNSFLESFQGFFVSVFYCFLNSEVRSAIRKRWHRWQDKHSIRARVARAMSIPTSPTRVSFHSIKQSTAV

In experiment [6] the target is T5, Gastric inhibitory polypeptide receptor (Homo sapiens, UniProt P48546).
T5 sequence (P48546 whole entry): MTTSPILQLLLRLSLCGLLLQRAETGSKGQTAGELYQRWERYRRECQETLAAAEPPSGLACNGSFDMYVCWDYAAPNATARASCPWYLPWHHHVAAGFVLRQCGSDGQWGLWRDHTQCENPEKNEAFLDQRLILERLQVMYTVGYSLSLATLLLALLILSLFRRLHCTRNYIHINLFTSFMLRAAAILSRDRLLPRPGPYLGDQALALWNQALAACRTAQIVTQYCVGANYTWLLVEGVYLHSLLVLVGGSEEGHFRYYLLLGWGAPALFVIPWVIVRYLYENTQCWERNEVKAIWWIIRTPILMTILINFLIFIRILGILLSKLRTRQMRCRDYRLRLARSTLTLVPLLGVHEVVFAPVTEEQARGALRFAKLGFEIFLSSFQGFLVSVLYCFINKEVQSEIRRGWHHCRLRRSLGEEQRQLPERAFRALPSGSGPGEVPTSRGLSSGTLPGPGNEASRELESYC
Note: assay procedure not described here.

Chain of Sodium-dependent serotonin transporter (P31645 whole entry): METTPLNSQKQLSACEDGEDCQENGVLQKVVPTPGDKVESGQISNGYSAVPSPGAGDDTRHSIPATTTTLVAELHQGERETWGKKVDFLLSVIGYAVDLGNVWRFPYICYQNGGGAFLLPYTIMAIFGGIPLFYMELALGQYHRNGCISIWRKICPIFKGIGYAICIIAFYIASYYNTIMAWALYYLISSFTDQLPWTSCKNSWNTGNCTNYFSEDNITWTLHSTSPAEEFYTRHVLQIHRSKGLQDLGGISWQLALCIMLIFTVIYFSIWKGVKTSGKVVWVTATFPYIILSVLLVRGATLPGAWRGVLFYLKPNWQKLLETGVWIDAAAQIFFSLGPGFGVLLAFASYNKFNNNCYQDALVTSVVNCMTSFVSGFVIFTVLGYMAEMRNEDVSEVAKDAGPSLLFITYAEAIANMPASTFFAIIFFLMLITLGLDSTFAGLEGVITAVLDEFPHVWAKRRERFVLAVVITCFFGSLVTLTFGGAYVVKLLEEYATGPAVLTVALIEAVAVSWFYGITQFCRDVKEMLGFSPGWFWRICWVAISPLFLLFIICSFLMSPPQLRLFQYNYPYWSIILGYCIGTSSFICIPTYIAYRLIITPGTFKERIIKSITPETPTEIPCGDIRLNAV

As to `CC[C@@H](C(N)=O)N1CCCC1=O`, the half-maximal activity concentration (AC50) in experiment [1], in experiment [2] and in experiment [3] was > 30 µM in each case.

With `CCC(CC)(CC(=O)Nc1cccc(/C=C/c2nc(C3CCC3)cs2)c1)C(=O)O`, the concentration at half-maximal activity (AC50) in experiment [1] and in experiment [3] was > 30 µM throughout.

Turning to `CCCC1O[C@@H]2C[C@H]3[C@@H]4CCC5=CC(=O)C=C[C@]5(C)[C@H]4[C@@H](O)C[C@]3(C)[C@]2(C(=O)CO)O1` (some centres not stated) [BUDESONIDE], the AC50 in experiment [2] and in experiment [4] was > 10 µM throughout.

With `C=CCN1C[C@H](C(=O)N(CCCN(C)C)C(=O)NCC)C[C@@H]2c3cccc4[nH]cc(c34)C[C@H]21` [CABERGOLINE], the AC50 (usually the concentration giving half of the maximal activity seen) in experiment [1] is > 10 µM; in experiment [3], 23.4 µM; in experiment [4] it was 3.62 µM.

`CN(C)CCC=C1c2ccccc2C=Cc2ccccc21` [CYCLOBENZAPRINE]: the AC50 was > 30 µM in experiment [5], > 30 µM in experiment [6], > 10 µM in experiment [2] and 0.261 µM in experiment [4].

As to `CCOc1ccc(Cc2cc([C@@H]3O[C@H](CO)[C@@H](O)[C@H](O)[C@H]3O)ccc2Cl)cc1` [DAPAGLIFLOZIN], the AC50 in experiment [4] was > 10 µM.

Take `CN(C)CC/C=C1\c2ccccc2CSc2ccccc21` [DOTHIEPIN]: the results for the half-maximal activity concentration (AC50) in experiment [1] and in experiment [4] were > 30 µM and 3.2 µM, respectively.

For the compound `CC[C@H]1CN2CCc3cc(OC)c(OC)cc3[C@@H]2C[C@@H]1C[C@H]1NCCc2cc(OC)c(OC)cc21` [EMETINE], the AC50 is > 30 µM in experiment [1] and 6 µM in experiment [4].

Turning to `COc1ccc(C(=O)Nc2ccccc2CCC2CCCCN2C)cc1` (configuration not stated) [ENCAINIDE], the AC50 in experiment [5] is > 30 µM; in experiment [6] it was > 30 µM; in experiment [2], > 10 µM; in experiment [3], > 10 µM; in experiment [4], > 10 µM.

Consider `O=[N+]([O-])O[C@@H]1CO[C@H]2[C@@H]1OC[C@@H]2O` [ISOSORBIDE MONONITRATE], for which the AC50 was > 30 µM in experiment [5]; > 30 µM in experiment [6]; > 10 µM in experiment [2]; > 10 µM in experiment [3]; > 10 µM in experiment [4].

In the case of `COc1ccccc1N1CCN(CC(O)COc2cccc3ccccc23)CC1` (configuration not stated) [NAFTOPIDIL], the AC50 in experiment [1] was > 30 µM; in experiment [2], 1.2 µM; in experiment [4] it was 0.543 µM.

Regarding `COc1cc2nc(N3CCN(C(=O)c4ccco4)CC3)nc(N)c2cc1OC` [PRAZOSIN], the half-maximal activity concentration (AC50) in experiment [5] and in experiment [6] was > 30 µM in each case.

As to `O=[N+]([O-])c1cn2c(n1)OC[C@@H](OCc1ccc(OC(F)(F)F)cc1)C2` [PRETOMANID], the concentration at half-maximal activity (AC50) in experiment [3] is > 10 µM.

`CCCCCNC(=N)N/N=C/c1c[nH]c2ccc(OC)cc12` [TEGASEROD]: the AC50 in experiment [5] was > 30 µM; in experiment [1], 21 µM; in experiment [6], > 30 µM; in experiment [2], 0.87 µM; in experiment [3], 3.47 µM; in experiment [4] it was 2.05 µM.

As for `CCOc1ccccc1OCC1CNCCO1` (configuration not stated) [VILOXAZINE], the AC50 was > 30 µM in experiment [5], > 30 µM in experiment [6], > 10 µM in experiment [2] and 11.2 µM in experiment [4].

In the case of `CN(C)CCc1c[nH]c2ccc(C[C@H]3COC(=O)N3)cc12` [ZOLMITRIPTAN], the AC50 in experiment [1] and in experiment [3] was > 30 µM each time.
